Results: the NIST ThermoML archive (doi:10.1016/j.jct.2014.01.006)
Several values for one entry are separate records, joined by “and”; a condition that tells them apart may be missing. Equal values may be shown once. Numbers after ± are expanded uncertainties.

How the values were obtained:
[1] = molar heat capacity at saturation pressure; conditions: Liquid
[2] = for molar entropy: Vacuum adiabatic calorimetry; for mass density: Vibrating tube method; for vapor or sublimation pressure: Ebulliometric method (Recirculating still)

Compound `c1ccc(-c2cccc3ccccc23)cc1` [1-phenylnaphthalene] has a molar heat capacity ([1]; 368.54 K, Vacuum adiabatic calorimetry) of 352.16 ± 0.52 J/K/mol, a molar heat capacity ([1]; 380 K, Vacuum adiabatic calorimetry) of 359 ± 0.53 J/K/mol and a molar heat capacity ([1]; 384.76 K, Vacuum adiabatic calorimetry) of 361.84 ± 0.54 J/K/mol. The molar heat capacity ([1]; 400 K, Vacuum adiabatic calorimetry) was 370.85 ± 0.55 J/K/mol, the molar heat capacity ([1]; 400.59 K, Vacuum adiabatic calorimetry) was 371.18 ± 0.55 J/K/mol and the molar heat capacity ([1]; 410 K, Small sample (50 mg) DSC) was 374.57 ± 9.1 J/K/mol and 371.91 ± 9.1 J/K/mol and 371.07 ± 9.1 J/K/mol. The molar heat capacity ([1]; 415.69 K, Vacuum adiabatic calorimetry) was 380.05 ± 0.56 J/K/mol, the molar heat capacity ([1]; 420 K, Vacuum adiabatic calorimetry) was 382.51 ± 0.57 J/K/mol and the molar heat capacity ([1]; 428.68 K, Vacuum adiabatic calorimetry) was 387.41 ± 0.57 J/K/mol. The molar heat capacity ([1]; 430 K, Small sample (50 mg) DSC) was 384.13 ± 9.4 J/K/mol and 385.46 ± 9.5 J/K/mol and 382.55 ± 9.4 J/K/mol, the molar heat capacity ([1]; 439.15 K, Vacuum adiabatic calorimetry) was 393.4 ± 0.57 J/K/mol and the molar heat capacity ([1]; 440 K, Vacuum adiabatic calorimetry) was 393.64 ± 0.57 J/K/mol. For the same compound, the molar heat capacity ([1]; 450 K, Small sample (50 mg) DSC) was 395.1 ± 9.6 J/K/mol and 393.86 ± 9.6 J/K/mol and 402.09 ± 9.8 J/K/mol, the molar heat capacity ([1]; 460 K, Vacuum adiabatic calorimetry) was 401.95 ± 0.58 J/K/mol and the molar heat capacity ([1]; 470 K, Small sample (50 mg) DSC) was 403.25 ± 9.9 J/K/mol and 404.83 ± 9.9 J/K/mol and 407.16 ± 10 J/K/mol. The molar heat capacity ([1]; 480 K, Vacuum adiabatic calorimetry) was 412.21 ± 0.6 J/K/mol, the molar heat capacity ([1]; 490 K, Small sample (50 mg) DSC) was 411.48 ± 10 J/K/mol and 416.14 ± 10 J/K/mol and 419.05 ± 10 J/K/mol and the molar heat capacity ([1]; 500 K, Vacuum adiabatic calorimetry) was 422.42 ± 0.61 J/K/mol. For the same compound, the molar heat capacity ([1]; 510 K, Small sample (50 mg) DSC) was 426.2 ± 10 J/K/mol and 428.36 ± 10 J/K/mol and 429.11 ± 10 J/K/mol, the molar heat capacity ([1]; 520 K, Vacuum adiabatic calorimetry) was 432.63 ± 0.62 J/K/mol and the molar heat capacity ([1]; 530 K, Small sample (50 mg) DSC) was 435.1 ± 11 J/K/mol and 439.09 ± 11 J/K/mol and 438.67 ± 11 J/K/mol. The molar heat capacity ([1]; 540 K, Vacuum adiabatic calorimetry) was 442.84 ± 0.63 J/K/mol, the molar heat capacity ([1]; 550 K, Small sample (50 mg) DSC) was 444.66 ± 11 J/K/mol and 449.81 ± 11 J/K/mol and 447.07 ± 11 J/K/mol and the molar heat capacity ([1]; 560 K, Vacuum adiabatic calorimetry) was 453.01 ± 0.65 J/K/mol. The molar heat capacity ([1]; 570 K, Small sample (50 mg) DSC) was 452.81 ± 11 J/K/mol and 460.62 ± 11 J/K/mol and 460.45 ± 11 J/K/mol, the molar heat capacity ([1]; 580 K, Vacuum adiabatic calorimetry) was 463.22 ± 0.66 J/K/mol and the molar heat capacity ([1]; 590 K, Small sample (50 mg) DSC) was 466.28 ± 11 J/K/mol and 469.1 ± 11 J/K/mol and 471.1 ± 12 J/K/mol. For the same compound, the molar heat capacity ([1]; 600 K, Vacuum adiabatic calorimetry) was 473.43 ± 0.67 J/K/mol, the molar heat capacity ([1]; 610 K, Small sample (50 mg) DSC) was 480.83 ± 12 J/K/mol and 476.5 ± 12 J/K/mol and 479.25 ± 12 J/K/mol and the molar heat capacity ([1]; 620 K, Vacuum adiabatic calorimetry) was 483.64 ± 0.68 J/K/mol. The molar heat capacity ([1]; 640 K, Vacuum adiabatic calorimetry) was 493.83 ± 0.7 J/K/mol, the molar heat capacity ([1]; 650 K, Vacuum adiabatic calorimetry) was 498.91 ± 0.7 J/K/mol and the molar entropy ([2]; 5 K, Crystal) was 0.1746 ± 0.017 J/K/mol. The molar entropy ([2]; 10 K, Crystal) was 1.372 ± 0.025 J/K/mol, the molar entropy ([2]; 20 K, Crystal) was 7.849 ± 0.083 J/K/mol and the molar entropy ([2]; 30 K, Crystal) was 17.67 ± 0.16 J/K/mol. For the same compound, the molar entropy ([2]; 40 K, Crystal) was 28.64 ± 0.12 J/K/mol, the molar entropy ([2]; 50 K, Crystal) was 39.72 ± 0.14 J/K/mol and the molar entropy ([2]; 60 K, Crystal) was 50.49 ± 0.17 J/K/mol. It also gave a molar entropy ([2]; 70 K, Crystal) of 60.84 ± 0.19 J/K/mol, a molar entropy ([2]; 80 K, Crystal) of 70.76 ± 0.22 J/K/mol and a molar entropy ([2]; 90 K, Crystal) of 80.33 ± 0.32 J/K/mol. For the same compound, the molar entropy ([2]; 100 K, Crystal) was 89.56 ± 0.34 J/K/mol, the molar entropy ([2]; 120 K, Crystal) was 107.24 ± 0.37 J/K/mol and the molar entropy ([2]; 140 K, Crystal) was 124.19 ± 0.39 J/K/mol. The molar entropy ([2]; 160 K, Crystal) was 140.69 ± 0.42 J/K/mol, the molar entropy ([2]; 180 K, Crystal) was 156.93 ± 0.45 J/K/mol and the molar entropy ([2]; 200 K, Crystal) was 173.03 ± 0.47 J/K/mol. For the same compound, the molar entropy ([2]; 220 K, Crystal) was 189.11 ± 0.5 J/K/mol, the molar entropy ([2]; 240 K, Crystal) was 205.23 ± 0.53 J/K/mol and the molar entropy ([2]; 260 K, Crystal) was 221.4 ± 0.56 J/K/mol. It also gave a molar entropy ([2]; 280 K, Crystal) of 237.64 ± 0.58 J/K/mol, a molar entropy ([2]; 297.47 K, Crystal) of 251.92 ± 0.61 J/K/mol and a molar entropy ([2]; 297.47 K, Liquid) of 304.2 ± 0.71 J/K/mol. The molar entropy ([2]; 298.15 K, Liquid) was 304.91 ± 0.71 J/K/mol, the molar entropy ([2]; 300 K, Liquid) was 306.83 ± 0.71 J/K/mol and the molar entropy ([2]; 320 K, Liquid) was 327.32 ± 0.75 J/K/mol. The mass density ([2]; 323.14 K, Liquid) was 1082.7 ± 1.1 kg/m3, the molar entropy ([2]; 340 K, Liquid) was 347.28 ± 0.78 J/K/mol and the mass density ([2]; 348.13 K, Liquid) was 1064.6 ± 1.1 kg/m3. For the same compound, the molar entropy ([2]; 360 K, Liquid) was 366.78 ± 0.81 J/K/mol, the mass density ([2]; 373.12 K, Liquid) was 1045.5 ± 1 kg/m3 and the “vapor or sublimation pressure” value ([2]; 375 K, Liquid) was 0.0218 ± 0.0077 kPa. The molar entropy ([2]; 380 K, Liquid) was 385.86 ± 0.85 J/K/mol, the “vapor or sublimation pressure” value ([2]; 385 K, Liquid) was 0.0404 ± 0.0077 kPa and the “vapor or sublimation pressure” value ([2]; 395 K, Liquid) was 0.0732 ± 0.0078 kPa. The molar entropy ([2]; 400 K, Liquid) was 404.57 ± 0.88 J/K/mol, the “vapor or sublimation pressure” value ([2]; 405 K, Liquid) was 0.1265 ± 0.0078 kPa and the “vapor or sublimation pressure” value ([2]; 415 K, Liquid) was 0.2126 ± 0.0078 kPa. For the same compound, the molar entropy ([2]; 420 K, Liquid) was 422.96 ± 0.91 J/K/mol, the mass density ([2]; 423.11 K, Liquid) was 1006.3 ± 1 kg/m3 and the “vapor or sublimation pressure” value ([2]; 425.01 K, Liquid) was 0.3464 ± 0.0078 kPa. For the same compound, the “vapor or sublimation pressure” value ([2]; 434.99 K, Liquid) was 0.549 ± 0.0078 kPa, the molar entropy ([2]; 440 K, Liquid) was 441.01 ± 0.95 J/K/mol and the “vapor or sublimation pressure” value ([2]; 445 K, Liquid) was 0.849 ± 0.0078 kPa. The mass density ([2]; 448.11 K, Liquid) was 986.7 ± 1 kg/m3, the “vapor or sublimation pressure” value ([2]; 455 K, Liquid) was 1.283 ± 0.0079 kPa and the molar entropy ([2]; 460 K, Liquid) was 458.69 ± 0.98 J/K/mol. The “vapor or sublimation pressure” value ([2]; 465 K, Liquid) was 1.896 ± 0.008 kPa, the “vapor or sublimation pressure” value ([2]; 466.36 K, Liquid) was 2 ± 0.0081 kPa and the mass density ([2]; 473.11 K, Liquid) was 967 ± 1 kg/m3. The “vapor or sublimation pressure” value ([2]; 475 K, Liquid) was 2.747 ± 0.0082 kPa, the “vapor or sublimation pressure” value ([2]; 480 K, Liquid) was 3.281 ± 0.0084 kPa and the molar entropy ([2]; 480 K, Liquid) was 476.01 ± 1 J/K/mol. For the same compound, the “vapor or sublimation pressure” value ([2]; 485.69 K, Liquid) was 4.002 ± 0.0086 kPa, the “vapor or sublimation pressure” value ([2]; 494.31 K, Liquid) was 5.336 ± 0.009 kPa and the mass density ([2]; 498.11 K, Liquid) was 945 ± 1 kg/m3. The molar entropy ([2]; 500 K, Liquid) was 493.05 ± 1 J/K/mol, the “vapor or sublimation pressure” value ([2]; 507.13 K, Liquid) was 8.005 ± 0.0097 kPa and the “vapor or sublimation pressure” value ([2]; 516.73 K, Liquid) was 10.67 ± 0.011 kPa. The molar entropy ([2]; 520 K, Liquid) was 509.81 ± 1.1 J/K/mol, the mass density ([2]; 523.11 K, Liquid) was 921.4 ± 0.9 kg/m3 and the “vapor or sublimation pressure” value ([2]; 524.52 K, Liquid) was 13.34 ± 0.012 kPa. For the same compound, the “vapor or sublimation pressure” value ([2]; 532.53 K, Liquid) was 16.64 ± 0.013 kPa, the “vapor or sublimation pressure” value ([2]; 539.27 K, Liquid) was 19.93 ± 0.015 kPa and the molar entropy ([2]; 540 K, Liquid) was 526.33 ± 1.1 J/K/mol. The “vapor or sublimation pressure” value ([2]; 548.1 K, Liquid) was 25.01 ± 0.017 kPa, the “vapor or sublimation pressure” value ([2]; 548.11 K, Liquid) was 25.02 ± 0.016 kPa and the “vapor or sublimation pressure” value ([2]; 557 K, Liquid) was 31.18 ± 0.019 kPa. For the same compound, the molar entropy ([2]; 560 K, Liquid) was 542.62 ± 1.1 J/K/mol, the “vapor or sublimation pressure” value ([2]; 565.96 K, Liquid) was 38.57 ± 0.023 kPa and the “vapor or sublimation pressure” value ([2]; 574.94 K, Liquid) was 47.36 ± 0.026 kPa. For the same compound, the molar entropy ([2]; 580 K, Liquid) was 558.7 ± 1.2 J/K/mol, the “vapor or sublimation pressure” value ([2]; 584.02 K, Liquid) was 57.82 ± 0.03 kPa and the “vapor or sublimation pressure” value ([2]; 593.13 K, Liquid) was 70.11 ± 0.035 kPa. For the same compound, the molar entropy ([2]; 600 K, Liquid) was 574.57 ± 1.2 J/K/mol, the “vapor or sublimation pressure” value ([2]; 602.33 K, Liquid) was 84.55 ± 0.041 kPa and the “vapor or sublimation pressure” value ([2]; 611.56 K, Liquid) was 101.34 ± 0.05 kPa. For the same compound, the molar entropy ([2]; 620 K, Liquid) was 590.26 ± 1.2 J/K/mol, the “vapor or sublimation pressure” value ([2]; 620.85 K, Liquid) was 120.8 ± 0.05 kPa and the “vapor or sublimation pressure” value ([2]; 630.2 K, Liquid) was 143.27 ± 0.06 kPa. It also gave a molar entropy ([2]; 640 K, Liquid) of 605.78 ± 1.2 J/K/mol, a molar entropy ([2]; 650 K, Liquid) of 613.47 ± 1.3 J/K/mol and a Triple point temperature ([2]; Crystal, Adiabatic calorimetry) of 297.47 ± 0.039 K. The Glass transition temperature ([2]; Glass, Adiabatic calorimetry) was -53 ± 1 °C.
